Values of other authors, collected in article PMC11317963 (Neural Regeneration Research, 2024).

Experiments:
[1] = test system: permanent middle cerebral artery occlusion model; conditions: compared with VEGF; ref Pignataro et al., 2015
[2] = ref Diana et al., 2008; Finetti et al., 2012
[3] = ref Zhang et al., 2000

For KLTWQELYQLKYKGI [QK], the vessel permeability [1] is listed as “decrease vessel permeability compared with VEGF” and the thermal stability [2] is listed as “relatively high thermal stability”.
In the case of VEGF, the half-life in vivo [3] is listed as “relatively short”.
